Numbering of substitutions follows the chain as printed. The source made the active and inactive calls. The rule behind the calls is not given here.
Columns and labels:
[1] = target: T1, Lysine-specific demethylase 4A (Homo sapiens, UniProt O75164); test: Binding affinity to thrombin cleavable N-terminal 6His tagged and 13C-IVLM labeled human KDM4A tandem TUDOR domain (897 to 1011 residues) expressed in Escherichia coli BL21(DE3)-T1R by ITC method
T1 sequence (O75164 whole entry): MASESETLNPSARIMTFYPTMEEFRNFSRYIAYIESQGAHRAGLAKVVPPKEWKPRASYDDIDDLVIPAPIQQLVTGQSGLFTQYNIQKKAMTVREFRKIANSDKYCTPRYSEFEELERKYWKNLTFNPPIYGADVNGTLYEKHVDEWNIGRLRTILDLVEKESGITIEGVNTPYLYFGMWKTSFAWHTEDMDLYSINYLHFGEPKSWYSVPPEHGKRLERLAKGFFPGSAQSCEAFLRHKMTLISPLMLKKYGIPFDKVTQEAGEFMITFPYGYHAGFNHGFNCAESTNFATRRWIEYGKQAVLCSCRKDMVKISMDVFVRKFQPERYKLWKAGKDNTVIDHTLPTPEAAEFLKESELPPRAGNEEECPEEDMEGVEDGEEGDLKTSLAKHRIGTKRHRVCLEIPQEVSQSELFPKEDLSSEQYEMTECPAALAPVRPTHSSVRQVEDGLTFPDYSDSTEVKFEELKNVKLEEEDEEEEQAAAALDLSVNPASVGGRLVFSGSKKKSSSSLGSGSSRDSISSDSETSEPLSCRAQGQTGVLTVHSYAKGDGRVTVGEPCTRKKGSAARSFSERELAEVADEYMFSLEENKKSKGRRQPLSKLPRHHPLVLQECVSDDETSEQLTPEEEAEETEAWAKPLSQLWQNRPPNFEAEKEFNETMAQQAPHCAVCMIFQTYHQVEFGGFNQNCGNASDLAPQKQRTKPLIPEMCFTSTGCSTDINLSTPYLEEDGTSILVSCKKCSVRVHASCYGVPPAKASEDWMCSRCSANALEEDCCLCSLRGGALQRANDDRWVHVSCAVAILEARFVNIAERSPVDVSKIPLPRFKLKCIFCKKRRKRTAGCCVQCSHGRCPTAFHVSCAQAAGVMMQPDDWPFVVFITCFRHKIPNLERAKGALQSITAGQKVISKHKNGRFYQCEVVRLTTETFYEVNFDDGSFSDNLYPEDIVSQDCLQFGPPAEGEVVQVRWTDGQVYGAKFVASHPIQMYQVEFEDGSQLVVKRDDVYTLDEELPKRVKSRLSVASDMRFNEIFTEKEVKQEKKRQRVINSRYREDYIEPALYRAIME

[2] = system: T2, Lysine-specific demethylase 4A (Homo sapiens), O75164 [W967A]; test: Binding affinity to thrombin cleavable N-terminal 6His tagged and 13C-IVLM labeled human KDM4A tandem TUDOR domain (897 to 1011 residues) W967A mutant expressed in Escherichia coli BL21(DE3)-T1R by ITC method
T2 sequence (whole entry): T1 sequence (O75164 whole entry) with W967A

CN(C)C[C@H]1C2CCC(c3ccccc3)(C2)[C@H]1O (some centres not stated)
Kd [1]: 81.7 µM | Activity [2]: inactive
